{"source": "patent US6376673B1", "about": "“Piperidine derivatives as neurotransmitter re-uptake inhibitors” (Neurosearch A/S, priority 1997, dated 2002)", "target": "T1, dopamine transporter (Rattus norvegicus, UniProt P23977)", "T1 construct": "Corpus striatum from male Wistar rats (150-200 g) is homogenized; from tissue; host or cells: rat corpus striatum membrane pellet", "T1 sequence (P23977 whole entry)": "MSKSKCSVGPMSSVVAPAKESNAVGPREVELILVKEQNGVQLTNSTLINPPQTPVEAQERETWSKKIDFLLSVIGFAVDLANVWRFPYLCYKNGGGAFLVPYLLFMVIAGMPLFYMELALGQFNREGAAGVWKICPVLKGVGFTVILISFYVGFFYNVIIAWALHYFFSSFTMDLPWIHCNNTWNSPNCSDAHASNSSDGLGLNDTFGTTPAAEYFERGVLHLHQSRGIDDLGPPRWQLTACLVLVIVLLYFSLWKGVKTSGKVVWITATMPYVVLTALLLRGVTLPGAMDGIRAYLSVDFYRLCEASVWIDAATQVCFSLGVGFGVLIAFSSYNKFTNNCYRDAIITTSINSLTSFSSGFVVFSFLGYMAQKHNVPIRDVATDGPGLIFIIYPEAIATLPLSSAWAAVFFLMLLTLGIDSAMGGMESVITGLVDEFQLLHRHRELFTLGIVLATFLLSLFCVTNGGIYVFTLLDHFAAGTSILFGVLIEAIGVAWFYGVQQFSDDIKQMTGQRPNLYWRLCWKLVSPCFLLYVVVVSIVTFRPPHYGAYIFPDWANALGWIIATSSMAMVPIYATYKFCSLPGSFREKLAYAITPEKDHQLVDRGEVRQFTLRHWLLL", "assay": "In vitro inhibition of 3H-WIN 35428 binding", "conditions": "corpus striatum membranes of male Wistar rats; 1 nM 3H-WIN 35428, 60 min at 2° C.; read-out: In Vitro IC50 (inhibition of specific binding of 3H-WIN 35428)", "text": "The compounds of the present invention have been tested for their ability to bind to the dopamine transporter in the following tests for in vitro inhibition of ^3H-WIN 35428.\nIn vitro Inhibition of ^3H-WIN 35428 Binding\nDopamine transporters/uptake sites on nerve terminals presumably function to terminate neuronal signaling by removing dopamine from the synaptic cleft. The activity or presence of the dopamine transporter integral protein can be measured in vitro with synaptosomal uptake of ^3H-dopamine or membrane binding assays with ^3H-ligands known to bind to the transporter.\nNumerous ligands of several structural types have been reported to bind at the dopamine uptake site, but it remains questionable whether their binding sites are identical to that of cocaine. A structural analog og cocaine, ^3H-WIN 35428, binds selectively and with high affinity to the dopamine transporter complex.\nTissue preparation: Preparations are performed at 0-4° C. unless otherwise indicated. […]\nAssay: Aliquots of 0.5 ml tissue are added to 25 ml of test solution and 25 ml of ^3H-WIN 35428 (1 nM, final concentration), mixed and incubated for 60 min at 2° C. Non-specific binding is determined using cocaine (30 mM, final concentration). […] The amount of radioactivity on the filters is determined by conventional liquid scintillation counting. […]"}
{"smiles": "CON=CC1CN(C)CCC1c1ccc(Cl)c(Cl)c1", "note": "(stereo not shown) [1-Metyl-3-methoxyiminomethyl-4-(3,4-dichlorophenyl)piperidine]", "values": [{"measurement": "IC50", "result": 16, "unit": "nM"}]}
